Measured values taken from the supplement of paper PMC10307832.

Tests used:
Assay in all cases: relative viability (nuclei count vs DMSO), 5 days (fraction); higher = more cells survive
[1] = compound: CC1=CN=C(N=C1C2=CNC(=C2)C(=O)N[C@H](CO)C3=CC(=CC=C3)Cl)NC4=C(C=C(C=C4)F)Cl [VX-11e] + CCNC(=O)c1noc(-c2cc(C(C)C)c(O)cc2O)c1-c1ccc(CN2CCOCC2)cc1 [Luminespib] (partner 0.01 µM)
Method in brief: (§1)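 Relative viability divides the nuclei count in treated wells by that in vehicle wells. Lung cancer cell lines were seeded in 1536-well plates, dosed by pin tool the next day, and fixed and stained after 5 days in one step with final 0.05% Triton X-100, 1% formaldehyde and 1 ug/ml Hoechst. Dosing was a single drug or a fixed anchor-drug dose plus five library-drug doses (not always all listed) in √10 steps, and values are medians of duplicate plates imaged at 4×.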

[2] = compound: CC1=CN=C(N=C1C2=CNC(=C2)C(=O)N[C@H](CO)C3=CC(=CC=C3)Cl)NC4=C(C=C(C=C4)F)Cl [VX-11e] + CC(=O)c1c(C)c2cnc(Nc3ccc(N4CCNCC4)cn3)nc2n(C2CCCC2)c1=O [Palbociclib] (partner 0.5 µM)
Method in brief: as §1

[3] = compound: CC1=CN=C(N=C1C2=CNC(=C2)C(=O)N[C@H](CO)C3=CC(=CC=C3)Cl)NC4=C(C=C(C=C4)F)Cl [VX-11e] + Cc1nc(Nc2ncc(C(=O)Nc3c(C)cccc3Cl)s2)cc(N2CCN(CCO)CC2)n1 [Dasatinib] (partner 0.075 µM)
Method in brief: as §1

[4] = compound: CC1=CN=C(N=C1C2=CNC(=C2)C(=O)N[C@H](CO)C3=CC(=CC=C3)Cl)NC4=C(C=C(C=C4)F)Cl [VX-11e] + CC(C)C[C@H](NC(=O)[C@H](Cc1ccccc1)NC(=O)c1cnccn1)B(O)O [Bortezomib] (partner 0.002 µM)
Method in brief: as §1

Row | Cell Line | relative viability ([1]; first compound 0.04 µM) | relative viability ([1]; first compound 0.1265 µM) | relative viability ([1]; first compound 0.4 µM) | relative viability ([1]; first compound 1.265 µM) | relative viability ([1]; first compound 4 µM) | relative viability ([2]; first compound 0.04 µM) | relative viability ([2]; first compound 0.1265 µM) | relative viability ([2]; first compound 0.4 µM) | relative viability ([2]; first compound 1.265 µM) | relative viability ([2]; first compound 4 µM) | relative viability ([3]; first compound 0.04 µM) | relative viability ([3]; first compound 0.1265 µM) | relative viability ([3]; first compound 0.4 µM) | relative viability ([3]; first compound 1.265 µM) | relative viability ([3]; first compound 4 µM) | relative viability ([4]; first compound 0.04 µM) | relative viability ([4]; first compound 0.1265 µM) | relative viability ([4]; first compound 0.4 µM) | relative viability ([4]; first compound 1.265 µM) | relative viability ([4]; first compound 4 µM)
1 | COR-L23 | 0.787 | 0.577 | 0.5 | 0.532 | 0.234 | 0.376 | 0.274 | 0.225 | 0.183 | 0.123 | 0.486 | 0.453 | 0.442 | 0.355 | 0.208 | 1.29 | 0.967 | 1.12 | 0.667 | 0.348
2 | NCI-H1395 | 0.804 | 0.637 | 0.423 | 0.682 | 0.46 | 0.593 | 0.612 | – | 0.605 | 0.483 | 0.448 | 0.383 | 0.346 | 0.398 | 0.376 | – | – | – | – | –
3 | RERF-LC-KJ | 1.32 | 1.06 | 1.05 | 1.21 | 1.11 | 1.11 | 1.02 | 0.981 | 0.952 | 0.908 | 0.872 | 0.758 | 0.867 | 0.71 | 0.59 | 1 | 1.04 | – | 1.03 | 0.894
4 | NCI-H1993 | 1.12 | 0.918 | 0.484 | 1.02 | 0.663 | – | 0.708 | 0.607 | 0.559 | 0.503 | 0.442 | 0.54 | 0.523 | 1.46 | 0.504 | – | 1.04 | – | 0.742 | 0.765
5 | NCI-H2087 | 0.188 | 0.188 | – | 0.154 | 0.152 | 0.203 | 0.244 | – | 0.176 | 0.176 | 0.943 | 0.73 | – | 0.301 | 0.202 | 0.863 | 0.639 | 0.582 | 0.921 | 0.287
6 | NCI-H520 | 0.205 | 0.183 | 0.19 | 0.272 | 0.207 | 0.202 | 0.254 | 0.232 | 0.244 | 0.292 | 0.175 | 0.188 | 0.199 | 0.338 | 0.293 | 0.621 | 0.49 | 0.636 | 0.486 | 0.474
7 | NCI-H1648 | – | – | – | – | – | – | 0.305 | 0.301 | 0.331 | 0.314 | – | – | – | – | – | – | – | – | – | –
8 | NCI-H23 | 0.237 | 0.225 | 0.237 | 0.182 | 0.185 | 0.453 | 0.416 | 0.425 | 0.382 | 0.203 | 0.552 | 0.711 | – | 0.225 | 0.221 | 0.911 | 0.81 | 0.25 | 0.935 | 0.367
9 | LXF-289 | 0.641 | 0.592 | 0.659 | 0.656 | 0.407 | 0.633 | 0.61 | – | 0.618 | 0.473 | 0.29 | 0.199 | 0.249 | 0.336 | 0.172 | 1.07 | 0.96 | 0.764 | 0.734 | 0.665
10 | HCC-44 | 1.17 | 0.96 | 0.364 | 0.556 | 0.916 | 0.984 | 0.885 | 0.96 | 1.07 | 1.29 | – | – | – | – | – | 0.913 | 0.912 | 0.857 | 0.646 | 0.453
11 | EMC-BAC-2 | 1.21 | 1.19 | 1.2 | 1.19 | 0.924 | 0.563 | 0.459 | 0.533 | 0.553 | 0.432 | 0.303 | 0.291 | 0.437 | 0.509 | 0.407 | 1.04 | 1.01 | 1.14 | 1.02 | 0.858
12 | NCI-H522 | 1.23 | 1.28 | 1.05 | 0.82 | 0.832 | 0.782 | 0.924 | 0.861 | 0.717 | 0.733 | 0.647 | 0.849 | 0.719 | 0.72 | 0.605 | – | – | – | – | –
13 | NCI-H1792 | 0.419 | 0.351 | 0.216 | 0.417 | 0.225 | 0.684 | 0.586 | 0.645 | 0.541 | 0.319 | 0.894 | 0.679 | 0.572 | 0.729 | 0.326 | 1.01 | 0.912 | 0.94 | 0.876 | 0.686
14 | NCI-H838 | 0.413 | 0.273 | 0.207 | 0.347 | 0.264 | 0.225 | 0.187 | 0.18 | 0.214 | 0.203 | 0.255 | 0.326 | 0.222 | 0.247 | 0.267 | 0.985 | 0.703 | 0.608 | 0.527 | 0.515
15 | LCLC-103H | 0.98 | 0.698 | 1.03 | 0.83 | 0.785 | 0.469 | 0.435 | 0.502 | 0.456 | 0.448 | 0.45 | 0.435 | 0.545 | 0.446 | 0.444 | 1.07 | 1.11 | 1.03 | 0.658 | 0.917
16 | NCI-H2170 | 0.878 | 0.639 | 0.566 | 0.802 | 0.436 | 0.354 | 0.386 | 0.381 | 0.339 | 0.424 | 0.339 | 0.664 | 0.461 | 0.341 | 0.445 | – | – | – | – | –
17 | HOP-62 | 1.01 | 0.843 | 0.946 | 0.687 | 0.406 | 0.505 | 0.451 | 0.464 | 0.434 | 0.348 | 0.685 | 0.652 | 0.663 | 0.457 | 0.242 | 0.688 | 0.963 | 0.553 | 0.214 | 0.515
18 | HCC-827 | 0.605 | 0.422 | 0.616 | 0.826 | 0.477 | 0.533 | 0.46 | 0.461 | 0.541 | 0.301 | 0.297 | 0.292 | 0.257 | 0.406 | 0.246 | 1.11 | 1.1 | 1.09 | 1.2 | 1.02
